According to paper PMC8746709, “Benzothiazolium Derivative-Capped Silica Nanocomposites for β-Amyloid Imaging In Vivo” (Analytical Chemistry, 2021):

Target: T1, β-amyloid(1–42) (Aβ1–42) aggregates (Homo sapiens, UniProt P05067)
T1 construct: gene APP; Aβ1–42, aggregates (filamentous)
Test: fluorescence saturation binding assay with Aβ[…] aggregates

T1 sequence (P05067 672-713): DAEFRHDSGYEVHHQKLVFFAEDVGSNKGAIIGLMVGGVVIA

Kd [nM] | Compound
508 ± 94.8 | CN(C)c1ccc(/C=C/c2sc3ccccc3[n+]2C)cc1 [SZI-1, (E)-2-(4-(Dimethylamino)styryl)-3-methylbenzo[d]thiazol-3-ium Iodide]
601 ± 94.8 | CN(C)c1ccc(/C=C/C=C/c2sc3ccccc3[n+]2C)cc1 [SZI-2, 2-((1E,3E)-4-(4-(Dimethylamino)phenyl)buta-1,3-dien-1-yl)-3-methylbenzo[d]thiazol-3-ium Iodide]
